Source: patent publication US11737977B2, “Cerasome delivery system for targeting activated CD44 molecule, preparation method and use thereof” (Beijing Inno Medicine Co., Ltd., priority 2017, dated 2023)

Key:
[1] = tested on: arterial vulnerable plaques; assay: In vivo CT tracing of arterial vulnerable plaques, iodixanol; design: species or system mice; conditions: iodixanol 0.66 mg/kg, tail vein, CT 72 hours after administration; FIG. 16
Protocol: (1) A commercially available iodixanol bulk drug was used, and the cerasome delivery system HA-CL1@I loaded with a CT tracer, the cerasome delivery system HA-CL1@I+S loaded with a tracer and a CD44 activator, and the non-targeting cerasome delivery system CL1@I loaded with a tracer (as a comparative example) were prepared by the method described in the above Example 2.
(2) A mouse model of atherosclerotic vulnerable plaque was constructed according to the method described in Example 6 above.
(3) The model mice were fed with a high-fat diet (same as in Example 6) for 16 weeks. 30 model mice were randomly divided into the blank group (6 mice), the iodixanol group (6 mice, given the commercially available iodixanol bulk drug, and the dosage of iodixanol was 0.66 mg/kg body weight), the CL1@I group (6 mice, given CL1@I, and the dosage of iodixanol was 0.66 mg/kg body weight), the HA-CL1@I group (6 mice, given HA-CL1@I, and the dosage of iodixanol was 0.66 mg/kg body weight), and HA-CL1@I+S group (6 mice, given HA-CL1@I+S, the dosage of iodixanol was 0.66 mg/kg body weight, and the dosage of CD44 activator-LPS was about 0.023 mg/kg body weight). […]

[2] = tested on: arterial vulnerable plaques; assay: In vivo therapeutic effect on arterial vulnerable plaques (carotid MRI, percentage of plaque progression); design: species or system ApoE−/− mice; conditions: 5 mg rosuvastatin per kg, once every other day, 5 treatments; FIG. 14
[3] = oral, clinical practice; cited from earlier work
[4] = molecular target: T1, CD44 on the surface of endothelial cells at arterial vulnerable plaques (Mus musculus, UniProt P15379); assay: Binding force integration of FL-ligand/antibody on endothelial cells (flow cytometry MFI); design: species or system mice; conditions: aminofluorescein-labeled ligand/antibody 10 mg/ml, 30 minutes, 37° C.
T1 construct: from tissue; host or cells: endothelial cells from arterial vulnerable plaques of atherosclerosis model mice
T1 sequence (P15379 23-778): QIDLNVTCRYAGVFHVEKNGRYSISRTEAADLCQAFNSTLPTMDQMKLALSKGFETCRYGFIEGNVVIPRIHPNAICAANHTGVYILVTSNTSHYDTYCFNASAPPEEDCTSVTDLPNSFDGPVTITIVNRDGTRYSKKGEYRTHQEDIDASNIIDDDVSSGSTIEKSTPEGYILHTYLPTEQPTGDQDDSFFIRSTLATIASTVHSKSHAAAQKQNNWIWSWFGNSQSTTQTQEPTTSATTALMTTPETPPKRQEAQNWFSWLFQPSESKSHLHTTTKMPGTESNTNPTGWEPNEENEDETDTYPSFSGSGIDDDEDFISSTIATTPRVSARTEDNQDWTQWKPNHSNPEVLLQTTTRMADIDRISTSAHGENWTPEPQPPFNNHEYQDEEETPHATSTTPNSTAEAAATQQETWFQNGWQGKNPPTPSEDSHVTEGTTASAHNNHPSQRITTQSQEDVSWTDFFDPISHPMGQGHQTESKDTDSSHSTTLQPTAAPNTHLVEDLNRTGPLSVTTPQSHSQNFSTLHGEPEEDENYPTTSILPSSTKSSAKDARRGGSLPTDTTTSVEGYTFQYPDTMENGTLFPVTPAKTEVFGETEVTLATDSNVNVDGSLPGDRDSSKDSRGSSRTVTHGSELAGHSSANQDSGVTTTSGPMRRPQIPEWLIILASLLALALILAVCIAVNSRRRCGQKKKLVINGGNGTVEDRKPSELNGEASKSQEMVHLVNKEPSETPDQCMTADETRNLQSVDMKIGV
Protocol: Endothelial cells at normal arterial vessel walls and endothelial cells at arterial vulnerable plaques of model mice were taken, and hyaluronic acid labeled with aminofluorescein at a concentration of 10 mg/ml (represented by “FL-HA”) was added, and the sample was cultured in Dulberic modified Eagle's medium (DMEM) (containing calf serum with a volume fraction of 10%, 100 U/ml penicillin, 100 U/ml streptomycin) at 37° C., in 5% CO2 incubator. After 30 minutes, the mean fluorescence intensity (MFI) was determined by flow cytometry (CytoFLEX, Beckman Coulter, U.S.A.), and the binding force integration of FL-HA on the surface of both cells was calculated (the binding force of endothelial cells of normal arterial vessel walls is set to 1).
Endothelial cells at normal arterial vessel walls and endothelial cells at arterial vulnerable plaques of model mice were taken, and the ligand/antibody labeled with aminofluorescein at a concentration of 10 mg/ml was added, the sample was cultured in Dulberic modified Eagle's medium (DMEM) (containing calf serum with a volume fraction of 10%, 100 U/ml penicillin, 100 U/ml streptomycin) at 37° C., in 5% CO2 incubator. After 30 minutes, the mean fluorescence intensity (MFI) was determined by flow cytometry (CytoFLEX, Beckman Coulter, U.S.A.), and the binding force integration of FL-ligand/antibody on the surface of both cells was calculated (the binding force of CD44 of endothelial cells of normal arterial vessel walls to ligand/antibody is set to 1).

[5] = molecular target: T2, CD44 on the surface of macrophages inside arterial vulnerable plaques (Mus musculus, UniProt P15379); assay: Binding force integration of FL-ligand/antibody on macrophages (flow cytometry MFI); design: species or system mice; conditions: aminofluorescein-labeled ligand/antibody 10 mg/ml, 30 minutes, 37° C.
T2 construct: from tissue; host or cells: macrophages from inside arterial vulnerable plaques of atherosclerosis model mice
T2 sequence (P15379 23-778): T1 sequence (P15379 23-778)
Protocol: Intraperitoneal macrophages and macrophages inside arterial vulnerable plaques of model mice were taken, and hyaluronic acid labeled with aminofluorescein at a concentration of 10 mg/ml (represented by “FL-HA”) was added, the sample was cultured in DMEM (containing calf serum with a volume fraction of 10%, 100 U/ml penicillin, 100 U/ml streptomycin) at 37° C., in 5% CO2 incubator.
Intraperitoneal macrophages and macrophages inside arterial vulnerable plaques of model mice were taken, and the ligand/antibody labeled with aminofluorescein at a concentration of 10 mg/ml was added, the sample was cultured in DMEM (containing calf serum with a volume fraction of 10%, 100 U/ml penicillin, 100 U/ml streptomycin) at 37° C., in 5% CO2 incubator.

CC(=O)N(CC(O)CN(C(C)=O)c1c(I)c(C(=O)NCC(O)CO)c(I)c(C(=O)NCC(O)CO)c1I)c1c(I)c(C(=O)NCC(O)CO)c(I)c(C(=O)NCC(O)CO)c1I (stereo not shown) [iodixanol]
tracing effect on arterial vulnerable plaques (CT) [1]: does not show any tracing effect

CC(C)c1nc(N(C)S(C)(=O)=O)nc(-c2ccc(F)cc2)c1/C=C/[C@@H](O)C[C@@H](O)CC(=O)O [rosuvastatin]
therapeutic effect on arterial vulnerable plaques (percentage of plaque progression) [2]: shows a certain therapeutic effect, but it could not prevent the continued growth of vulnerable plaques | bioavailability when administered orally [3]: about 20%

collagen
binding force integration, endothelial cells at vulnerable plaques versus endothelial cells of normal arterial vessel walls (set to 1) [4]: 21 times | binding force integration, macrophages inside vulnerable plaques versus macrophages outside the plaque (set to 1) [5]: 38 times

fibronectin
binding force integration, endothelial cells at vulnerable plaques versus endothelial cells of normal arterial vessel walls (set to 1) [4]: 18 times | binding force integration, macrophages inside vulnerable plaques versus macrophages outside the plaque (set to 1) [5]: 35 times

hyaluronic acid [HA, reference compound]
binding force integration, endothelial cells at vulnerable plaques versus endothelial cells of normal arterial vessel walls (set to 1) [4]: approximately 24 times | binding force integration, macrophages inside vulnerable plaques versus macrophages outside the plaque (set to 1) [5]: approximately 40 times

laminin
binding force integration, endothelial cells at vulnerable plaques versus endothelial cells of normal arterial vessel walls (set to 1) [4]: 16 times | binding force integration, macrophages inside vulnerable plaques versus macrophages outside the plaque (set to 1) [5]: 37 times

osteopontin: natural ligand for CD44
binding force integration, endothelial cells at vulnerable plaques versus endothelial cells of normal arterial vessel walls (set to 1) [4]: 17 times | binding force integration, macrophages inside vulnerable plaques versus macrophages outside the plaque (set to 1) [5]: 33 times
